Data reported in ChEMBL document CHEMBL5120831, “Pep5-based antitumor peptides containing multifunctional fragments with enhanced activity and synergistic effect” (Eur J Med Chem, 2022).
The source made the active and inactive calls. No cut-off for these calls is given here. Numbered stars: 1 amine (or outer) side, 2 acyl side, 3 side chain; on linkers, the order of the positions; unused ones are H or OH. Bridge positions count the residues as written; N and C are the ends. Square brackets hold non-standard residues; d marks the D form. I, II: the chains in the order shown. X1 = O=C([C@H](Cc1c[nH]c2ccccc12)N(c1ccc([N+](=O)[O-])c2nonc12)[*:1])[*:2]

Tests used:
[1] = test system: HepG2; experiment: Induction of apoptosis in human HepG2 cells assessed as cell membrane disruption at 15 uM measured after 24 hrs by transmission electron microscopy; assay type: functional, cell-based
[2] = test system: A549; experiment: Induction of apoptosis in human A549 cells assessed as chromatin condensation at 15 uM measured after 24 hrs by transmission electron microscopy; assay type: functional, cell-based
[3] = test system: HepG2; experiment: Induction of apoptosis in human HepG2 cells assessed as chromatin condensation at 15 uM measured after 24 hrs by transmission electron microscopy; assay type: functional, cell-based
[4] = test system: HepG2; experiment: Antitumor activity against human HepG2 cells xenografted in BALB/c nude mouse assessed as induction of apoptosis at 25 to 50 uM, sc administered at 1 day interval for 9 days and measured on day 11 by TUNEL staining based assay; assay type: functional, organism-based; conditions: dose 25-50 µM, time 11.0 day
[5] = test system: HepG2; experiment: Antitumor activity against human HepG2 cells xenografted in BALB/c nude mouse assessed as missing nuclei at 25 to 50 uM, sc administered at 1 day interval for 9 days and measured on day 11 by H and E staining based histological analysis; assay type: functional, organism-based; conditions: dose 25-50 µM, time 11.0 day
[6] = Toxicity in HepG2 cell xenografted BALB/c nude mouse assessed as change in body weight at 25 to 50 uM, sc administered at 1 day interval for 9 days; assay type: organism-based; conditions: in vivo, 216 h, dose 25-50 µM, time 9 day
[7] = test system: A549; experiment: Induction of cell membrane disruption in human A549 cells assessed as increase in LDH release at 15 uM measured after 1 hr by LDH releasing reagent based assay
[8] = test system: HepG2; experiment: Induction of apoptosis in human HepG2 cells assessed as appearance of apoptotic bodies at 15 uM measured after 24 hrs by transmission electron microscopy; assay type: functional, cell-based
[9] = test system: HepG2; experiment: Induction of ROS generation in human HepG2 cells at 10 to 30 uM measured after 4 hrs by DCFH-DA reagent based fluorescence assay; assay type: functional, cell-based; conditions: dose 10-30 µM
[10] = test system: HepG2; experiment: Induction of necrosis in human HepG2 cells assessed as releasing of large number of cell content into extracellular space at 30 uM measured after 24 hrs by transmission electron microscopy; assay type: functional, cell-based
[11] = Cytotoxicity against human BEAS-2B cells assessed as reduction in cell viability measured after 24 hrs by CCK-8 assay; assay type: toxicity, cell-based
[12] = test system: L02; experiment: Induction of apoptosis in human L02 cells assessed as reduction in viable cells at 15 uM measured after 24 hrs by Annexin V-FITC/propidium iodide staining based flow cytometry; assay type: toxicity, cell-based; conditions: l02, 24 h
[13] = test system: A549; experiment: Cytotoxicity against human A549 cells assessed as reduction in cell viability measured after 24 hrs by CCK-8 assay; assay type: functional, cell-based; conditions: A549, 24 h
[14] = test system: HepG2; experiment: Antitumor activity against human HepG2 cells xenografted in BALB/c nude mouse assessed as appearance of fuzzy boundary region at 25 to 50 uM, sc administered at 1 day interval for 9 days and measured on day 11 by H and E staining based histological analysis; assay type: functional, organism-based; conditions: dose 25-50 µM, time 11.0 day
[15] = test system: HepG2; experiment: Induction of morphological changes in human HepG2 cells assessed as appearance of broken cell structure at 15 uM measured after 24 hrs by high-throughput microscopy; assay type: functional, cell-based
[16] = test system: A549; experiment: Induction of necrosis in human A549 cells assessed as cell membrane disruption at 30 uM measured after 24 hrs by transmission electron microscopy; assay type: functional, cell-based
[17] = test system: HepG2; experiment: Cytotoxicity against human HepG2 cells assessed as reduction in cell viability measured after 24 hrs by CCK-8 assay; assay type: functional, cell-based; conditions: HepG2, 24 h
[18] = test system: BEAS-2B; experiment: Induction of apoptosis in human BEAS-2B cells assessed as reduction in viable cells at 15 uM measured after 24 hrs by Annexin V-FITC/propidium iodide staining based flow cytometry; assay type: toxicity, cell-based
[19] = test system: A549; experiment: Induction of apoptosis in human A549 cells assessed as hollow mitochondria at 15 uM measured after 24 hrs by transmission electron microscopy; assay type: functional, cell-based
[20] = Cytotoxicity against human L02 cells assessed as reduction in cell viability measured after 24 hrs by CCK-8 assay; assay type: toxicity, cell-based
[21] = test system: HepG2; experiment: Induction of apoptosis in human HepG2 cells assessed as swollen mitochondria at 15 uM measured after 24 hrs by transmission electron microscopy; assay type: functional, cell-based
[22] = test system: HepG2; experiment: Antitumor activity against human HepG2 cells xenografted in sc dosed BALB/c nude mouse assessed as tumor growth inhibition administered at 1 day interval for 9 days; assay type: functional, organism-based; conditions: dose 25-50 µM, time 9.0 day, DDE = dose-dependent effect
[23] = test system: HepG2; experiment: Antitumor activity against human HepG2 cells xenografted in BALB/c nude mouse assessed as reduction in tumor volume at 25 to 50 uM, sc administered at 1 day interval for 9 days; assay type: functional, organism-based; conditions: dose 25-50 µM, time 9.0 day
[24] = test system: HepG2; experiment: Induction of cell membrane disruption in human HepG2 cells assessed as increase in LDH release at 15 uM measured after 1 hr by LDH releasing reagent based assay
[25] = test system: A549; experiment: Induction of apoptosis in human A549 cells assessed as appearance of apoptotic bodies at 15 uM measured after 24 hrs by transmission electron microscopy; assay type: functional, cell-based
[26] = test system: HepG2; experiment: Induction of apoptosis in human HepG2 cells assessed as hollow mitochondria at 15 uM measured after 24 hrs by transmission electron microscopy; assay type: functional, cell-based
[27] = test system: A549; experiment: Induction of apoptosis in human A549 cells assessed as cell membrane disruption at 15 uM measured after 24 hrs by transmission electron microscopy; assay type: functional, cell-based
[28] = test system: HepG2; experiment: Induction of necrosis in human HepG2 cells assessed as cell membrane disruption at 30 uM measured after 24 hrs by transmission electron microscopy; assay type: functional, cell-based
[29] = test system: A549; experiment: Induction of necrosis in human A549 cells assessed as releasing of large number of cell content into extracellular space at 30 uM measured after 24 hrs by transmission electron microscopy; assay type: functional, cell-based
[30] = test system: Proteasome; experiment: Inhibition of proteasome activity in human A549 cells measured after 4 hrs by luciferase assay; conditions: dose 5-30 µM, DDE = dose-dependent effect
[31] = test system: A549; experiment: Induction of apoptosis in human A549 cells assessed as swollen mitochondria at 15 uM measured after 24 hrs by transmission electron microscopy; assay type: functional, cell-based
[32] = Drug uptake in human A549 cells at 15 uM measured after 1 hr by Hoechst 33258 staining based flow cyotmetry; assay type: ADME, cell-based; conditions: a549, 1 h
[33] = Drug uptake in human HepG2 cells membrane at 15 uM measured after 15 mins by Hoechst 33258/Lyso-Tracker Red staining based flow cytometry; assay type: ADME, cell membranes, Cell membrane; conditions: hepg2, 0.25 h
[34] = Drug uptake in human L02 cells at 15 uM measured after 1 hr by Hoechst 33258 staining based flow cyotmetry; assay type: ADME, cell-based; conditions: l02, 1 h
[35] = Drug uptake in human L02 cells at 15 uM measured after 1 hr by Hoechst 33258 staining based confocal laser scanning microscopy; assay type: ADME, cell-based; conditions: l02, 1 h
[36] = Drug uptake in human A549 cells at 15 uM measured after 1 hr by Hoechst 33258 staining based confocal laser scanning microscopy; assay type: ADME, cell-based; conditions: a549, 1 h
[37] = Drug uptake in human BEAS-2B cells at 15 uM measured after 1 hr by Hoechst 33258 staining based confocal laser scanning microscopy; assay type: ADME, cell-based
[38] = Drug uptake in human BEAS-2B cells at 15 uM measured after 1 hr by Hoechst 33258 staining based flow cyotmetry; assay type: ADME, cell-based
[39] = Drug uptake in endosome of human HepG2 cells at 15 uM measured after 30 mins by Hoechst 33258/Lyso-Tracker Red staining based flow cytometry; assay type: ADME; conditions: hepg2, 0.5 h
[40] = Drug uptake in human HepG2 cells at 15 uM measured after 1 hr by Hoechst 33258 staining based confocal laser scanning microscopy; assay type: ADME, cell-based; conditions: hepg2, 1 h
[41] = Drug uptake in human HepG2 cells at 15 uM measured after 1 hr by Hoechst 33258 staining based flow cyotmetry; assay type: ADME, cell-based; conditions: hepg2, 1 h
[42] = Drug uptake in human HepG2 cells at 15 uM measured after 60 to 120 mins by Hoechst 33258/Lyso-Tracker Red staining based flow cytometry; assay type: ADME, cell-based; conditions: hepg2, 15 µM, time 60-120 min
[43] = Drug uptake in cytoplasm of human HepG2 cells at 15 uM measured after 60 mins by Hoechst 33258/Lyso-Tracker Red staining based flow cytometry; assay type: ADME, subcellular; conditions: hepg2, 1 h

I: H-WELVVLGKLLLHHLLHHLLHHGLRKRLRKFRNKIKEK / II: H-GLRKRLRKFRNKIKEK-NH2 (amide I:C-II:4)
Activity [1]: Active | Activity [2]: Active | Activity [3]: Active | Activity [4]: Active | Activity [5]: Active | Activity [6]: Non-Toxic | Activity [7]: Active | Activity [8]: Active | Activity [9]: Active | Activity [10]: Active | IC50 at 24 h [11]: 11.2 µM | Activity [12]: Non-Toxic | IC50 [13]: 6.41 µM | Activity [14]: Active | Activity [15]: Active | Activity [16]: Active | IC50 [17]: 7.77 µM | Activity [18]: Non-Toxic | Activity [19]: Active | IC50 at 24 h [20]: 11.1 µM | Activity [21]: Active | TGI [22]: Dde | Activity [23]: Active | Activity [24]: Active | Activity [25]: Active | Activity [26]: Active | Activity [27]: Active | Activity [28]: Active | Activity [29]: Active | inhibition [30]: Dde | Activity [31]: Active

I: H-[X1]ELVVLGKLLLHHLLHHLLHHGLRKRLRKFRNKIKEK / II: H-GLRKRLRKFRNKIKEK-NH2 (amide I:C-II:4)
Drug uptake [32]: Active | Drug uptake [33]: Active | Drug uptake [34]: Active | Drug uptake [35]: Active | Drug uptake [36]: Active | Drug uptake [37]: Active | Drug uptake [38]: Active | Drug uptake [39]: Active | Drug uptake [40]: Active | Drug uptake [41]: Active | Drug uptake [42]: Active | Drug uptake [43]: Active
